ChEMBL document CHEMBL1149733, “Antitumor agents, 130, Novel 4 beta-arylamino derivatives of 3',4'-didemethoxy-3',4'-dioxo-4-deoxypodophyllotoxin as potent inhibitors of human DNA topoisomerase II” (1992)

Columns and labels:
EMT6 = test: Ratio of cytotoxicity for normally oxygenated mouse EMT6 cells over hypoxic mouse EMT6 cells; format: functional
[1] = molecular target: DNA topoisomerase 2-alpha (Homo sapiens) (UniProt P11388); test: Inhibition of strand rejoining activity of human DNA topoisomerase 2 assessed as protein-DNA complex formation at 10 uM by cell-based assay; design: scale not given: the % may be the effect or the level left
DNA topoisomerase 2-alpha (Homo sapiens), sequence (P11388 whole entry): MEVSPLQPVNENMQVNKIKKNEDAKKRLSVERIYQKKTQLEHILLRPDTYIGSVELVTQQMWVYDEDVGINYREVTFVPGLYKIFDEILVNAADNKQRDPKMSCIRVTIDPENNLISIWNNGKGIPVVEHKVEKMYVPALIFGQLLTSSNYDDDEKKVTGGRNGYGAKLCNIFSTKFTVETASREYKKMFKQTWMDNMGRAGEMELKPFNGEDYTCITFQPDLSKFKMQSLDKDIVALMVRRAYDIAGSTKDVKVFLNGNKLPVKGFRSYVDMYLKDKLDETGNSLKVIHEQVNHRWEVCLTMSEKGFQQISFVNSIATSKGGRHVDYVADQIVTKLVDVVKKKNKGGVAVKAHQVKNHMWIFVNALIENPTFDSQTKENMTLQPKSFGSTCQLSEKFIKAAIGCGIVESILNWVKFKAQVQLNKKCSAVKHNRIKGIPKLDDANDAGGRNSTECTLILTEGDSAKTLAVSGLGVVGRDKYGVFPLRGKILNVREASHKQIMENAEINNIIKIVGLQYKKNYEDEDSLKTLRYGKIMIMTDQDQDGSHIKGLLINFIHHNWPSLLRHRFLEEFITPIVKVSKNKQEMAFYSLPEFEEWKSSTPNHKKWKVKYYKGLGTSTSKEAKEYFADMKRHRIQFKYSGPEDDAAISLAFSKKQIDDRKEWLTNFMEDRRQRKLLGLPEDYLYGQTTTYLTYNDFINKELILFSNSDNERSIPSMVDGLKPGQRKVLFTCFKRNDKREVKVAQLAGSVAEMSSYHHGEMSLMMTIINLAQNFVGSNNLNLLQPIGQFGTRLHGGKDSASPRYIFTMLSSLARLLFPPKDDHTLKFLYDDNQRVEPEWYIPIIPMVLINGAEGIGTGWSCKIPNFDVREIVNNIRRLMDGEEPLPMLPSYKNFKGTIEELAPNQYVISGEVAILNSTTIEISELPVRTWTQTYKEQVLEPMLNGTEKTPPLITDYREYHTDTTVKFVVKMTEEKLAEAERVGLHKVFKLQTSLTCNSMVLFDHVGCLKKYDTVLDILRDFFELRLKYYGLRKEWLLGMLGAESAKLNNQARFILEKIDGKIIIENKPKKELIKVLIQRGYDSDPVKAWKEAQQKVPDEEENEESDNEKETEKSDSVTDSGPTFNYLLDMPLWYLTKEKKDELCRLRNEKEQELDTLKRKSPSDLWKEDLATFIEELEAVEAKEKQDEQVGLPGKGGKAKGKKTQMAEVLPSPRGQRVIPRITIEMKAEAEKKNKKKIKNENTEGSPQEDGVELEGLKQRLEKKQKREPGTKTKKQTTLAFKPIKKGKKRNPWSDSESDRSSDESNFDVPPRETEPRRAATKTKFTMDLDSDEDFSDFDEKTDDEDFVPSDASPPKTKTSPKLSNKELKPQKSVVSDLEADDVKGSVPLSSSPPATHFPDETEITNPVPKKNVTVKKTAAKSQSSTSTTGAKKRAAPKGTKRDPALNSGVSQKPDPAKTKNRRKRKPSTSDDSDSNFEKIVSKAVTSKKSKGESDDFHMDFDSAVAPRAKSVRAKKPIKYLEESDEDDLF

KB = test: Cytotoxicity against human KB cells assessed as reduction in cell number after 3 days; format: functional; conditions: 72 h, read-out: ID50 (the source's name)
[2] = molecular target: DNA topoisomerase 2-alpha (Homo sapiens) (UniProt P11388); test: Inhibition of human DNA topoisomerase 2

Row | SMILES | Ratio (EMT6) | Activity [1] [%] | IC50 (KB) [µM] | ID50 [2] [µM]
1 | COc1cc([C@@H]2c3cc4c(cc3[C@@H](O[C@@H]3O[C@@H]5CO[C@@H](C)O[C@H]5[C@H](O)[C@H]3O)[C@H]3COC(=O)[C@H]23)OCO4)cc(OC)c1O [ETOPOSIDE] | 30 | 100 |  | 
2 | COc1cc([C@@H]2c3cc4c(cc3[C@@H](Nc3cncc5ccccc35)[C@H]3COC(=O)[C@H]23)OCO4)cc(OC)c1O |  | 123 | < 1 | 50
3 | COc1cc([C@@H]2c3cc4c(cc3[C@@H](Nc3ccccc3)[C@H]3COC(=O)[C@H]23)OCO4)cc(OC)c1O |  | 243 | 0.7 | 25
4 | COC(=O)c1ccc(N[C@@H]2c3cc4c(cc3[C@@H](c3cc(OC)c(O)c(OC)c3)[C@H]3C(=O)OC[C@@H]32)OCO4)cc1O |  | 129 | 5.8 | 50
5 | COc1cc([C@@H]2c3cc4c(cc3[C@@H](Oc3ccc(F)cc3)[C@H]3COC(=O)[C@H]23)OCO4)cc(OC)c1O |  | 57 | 0.5 | > 100
